Laboratory results from PMC3809587, “Structure and function of the Smoothened extracellular domain in vertebrate Hedgehog signaling” (eLife, 2013).

Key:
YFP-mSmo [1] = target: T1, YFP-mSmo (Mus musculus, UniProt P56726); assay: Gli1 and Gli3R immunoblot in Smo−/−:YFP-mSmo cells; type: cell-based; conditions: SAG 100 nM, 20(S)-OHC 10 μM
T1 construct: Smo^−/− cells stably expressing full-length (FL) YFP-mSmo or ΔCRD-YFP-mSmo were treated with Shh, SAG (100 nM) or 20(S)-OHC (10 μM); expressed in transfected cells
T1 sequence (P56726 33-793): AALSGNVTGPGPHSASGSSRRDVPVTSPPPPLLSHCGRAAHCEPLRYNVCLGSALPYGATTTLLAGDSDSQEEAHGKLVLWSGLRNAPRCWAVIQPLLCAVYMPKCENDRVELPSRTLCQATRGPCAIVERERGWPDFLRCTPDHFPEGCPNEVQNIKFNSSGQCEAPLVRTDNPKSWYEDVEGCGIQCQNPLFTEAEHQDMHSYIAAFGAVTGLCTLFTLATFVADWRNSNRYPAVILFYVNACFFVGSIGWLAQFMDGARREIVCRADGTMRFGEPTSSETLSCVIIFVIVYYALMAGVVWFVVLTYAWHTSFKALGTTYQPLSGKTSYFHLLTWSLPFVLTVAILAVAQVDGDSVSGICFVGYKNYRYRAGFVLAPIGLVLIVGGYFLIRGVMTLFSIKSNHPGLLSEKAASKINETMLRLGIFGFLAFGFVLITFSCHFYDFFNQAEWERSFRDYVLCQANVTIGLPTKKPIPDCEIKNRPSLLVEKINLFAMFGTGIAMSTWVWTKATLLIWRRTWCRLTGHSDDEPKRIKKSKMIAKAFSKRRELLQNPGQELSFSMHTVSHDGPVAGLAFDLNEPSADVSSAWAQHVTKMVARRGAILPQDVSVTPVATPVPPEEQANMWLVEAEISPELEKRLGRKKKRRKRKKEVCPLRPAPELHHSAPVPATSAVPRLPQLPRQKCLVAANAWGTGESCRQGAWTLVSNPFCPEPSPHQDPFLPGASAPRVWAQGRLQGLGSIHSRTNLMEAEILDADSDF
Description: Cultured cells stably expressing YFP-mSmo, ΔCRD-YFP-mSmo, or ΔC-YFP-mSmo were scraped into ice-cold PBS containing SigmaFast Protease inhibitor cocktail (Sigma) and collected as a pellet by centrifugation (1000×g, 10 min, 4°C). Cells were lysed (1 hr, 4°C) by agitation in modified RIPA buffer (50 mM sodium-Tris pH 7.4, 150 mM sodium chloride, 2% NP-40, 0.5% deoxycholate, 0.1% sodium-dodecyl sulfate [SDS], 1 mM dithiothreitol and the SigmaFast Protease inhibitor cocktail). After clarification (20,000×g, 45 min, 4°C), the protein concentration of each lysate was measured using the bicinchoninic acid assay (BCA, Pierce/Thermo Scientific, Rockford, IL). Lysate aliquots containing equal amount of total protein were fractionated on an 8% SDS-PAGE gel and transferred to a nitrocellulose membrane for immunoblotting with anti-Gli1 antibody (#L42B10, 1:500; Cell Signaling, Denvers, MA), anti-GFP antibody (1:5000; Novus, Littleton, CO), anti-Gli3 antibody (AF3690 1:200; R&D, Minneapolis, MN) and anti-p38 antibody (ab31828, 1:2000; Abcam, Cambridge, MA). In Figures 1–4, vertical dashed black lines represent non-contiguous lanes from the same immunoblot juxtaposed for clarity.

ΔCRD-YFP-mSmo = target: T2, ΔCRD-YFP-mSmo (Mus musculus, UniProt P56726, DEL68-184); assay: Hh signaling by ΔCRD-YFP-mSmo in Smo−/− cells (immunoblot, Hh reporter); type: cell-based; conditions: SAG 100 nM, 20(S)-OHC 10 μM
T2 construct: All mSmo mutants were made using Quickchange or PCR methods in the context of a previously described construct encoding full-length mouse Smo (UniProt P56726); expressed in transfected cells
T2 sequence (P56726 with tags, fused parts or gaps DEL68-184): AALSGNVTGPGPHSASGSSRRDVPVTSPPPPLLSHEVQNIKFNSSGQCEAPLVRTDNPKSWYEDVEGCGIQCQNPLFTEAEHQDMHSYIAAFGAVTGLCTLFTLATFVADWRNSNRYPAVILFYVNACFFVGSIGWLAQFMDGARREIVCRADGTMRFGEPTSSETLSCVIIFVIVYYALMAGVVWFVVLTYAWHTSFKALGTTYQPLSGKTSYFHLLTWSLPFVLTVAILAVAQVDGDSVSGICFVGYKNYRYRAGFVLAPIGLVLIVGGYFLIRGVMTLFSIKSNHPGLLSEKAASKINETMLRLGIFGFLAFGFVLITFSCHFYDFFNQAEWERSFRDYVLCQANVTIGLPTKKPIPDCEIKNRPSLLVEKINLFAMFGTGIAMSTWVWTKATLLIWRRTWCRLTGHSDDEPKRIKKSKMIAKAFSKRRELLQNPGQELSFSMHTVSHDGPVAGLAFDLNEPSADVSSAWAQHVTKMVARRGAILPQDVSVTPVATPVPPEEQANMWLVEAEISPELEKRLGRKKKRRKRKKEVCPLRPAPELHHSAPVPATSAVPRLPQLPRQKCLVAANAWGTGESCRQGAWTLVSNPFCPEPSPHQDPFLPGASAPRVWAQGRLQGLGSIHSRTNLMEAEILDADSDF

zSmo ectodomain = target: T3, zSmo ectodomain (Danio rerio, UniProt Q5RH73); assay: Ligand affinity chromatography: zSmo ectodomain binding to 20(S)-OHC beads; parameters: species or system zebrafish
T3 construct: zSmo-ectodomain: a.a; 29–212), fused C-terminally with a with a hexa-histidine (His6) tag; His6 (C); made in house
T3 sequence (Q5RH73 29-212): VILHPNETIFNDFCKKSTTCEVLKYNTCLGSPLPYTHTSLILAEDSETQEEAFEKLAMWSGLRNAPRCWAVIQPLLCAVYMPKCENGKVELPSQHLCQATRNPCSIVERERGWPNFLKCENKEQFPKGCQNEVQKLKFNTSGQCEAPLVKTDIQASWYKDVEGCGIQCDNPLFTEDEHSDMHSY
Description: For ligand affinity chromatography with purified mSmo CRD-Fc or zSmo ectodomain, protein was diluted in 20 mM Tris pH 8.5, 150 mM NaCl, 0.3% octyl-glucoside prior to addition of competitors and 20(S)-OHC beads. After binding was allowed to proceed for 12 hr at 4°C, the resin was washed and captured protein was eluted as described above. The presence of mSmo CRD-Fc was measured by an anti-human HRP-coupled antibody (1:20,000) or anti-human IR800-coupled antibody (1:10,000; for all quantitation, detected by LiCor Odyssey). The presence of zSmo ectodomain protein was measured by colloidal Coomassie staining (GelCode Blue, Pierce/Thermo Scientific).
For Hh reporter assays, each point is reported as the mean ± standard deviation (SD) derived from triplicates. Each result in the paper was repeated at least three times with similar outcomes. Relative luciferase activity was calculated by dividing Gli luciferase by Renilla luciferase luminescence. Fold-change in reporter activity was calculated by dividing each replicate by the mean reporter activity of the vehicle-treated control. Normalized (% of max) Hh reporter activity was calculated by setting the maximum value of a set to 100% and zero to 0% using the ‘normalize’ function of GraphPad Prism. […]

mSmo CRD-Fc = target: T4, mSmo CRD-Fc (Mus musculus, UniProt P56726); assay: Ligand affinity chromatography: mSmo CRD-Fc binding to 20(S)-OHC beads
T4 construct: made in house; host or cells: 293F suspension cells (secreted)
T4 sequence (P56726 33-183): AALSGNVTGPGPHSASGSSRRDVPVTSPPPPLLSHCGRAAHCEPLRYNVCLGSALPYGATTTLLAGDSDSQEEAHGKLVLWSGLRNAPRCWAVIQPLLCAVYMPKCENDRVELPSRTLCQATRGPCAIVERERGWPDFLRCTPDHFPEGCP
Description: After binding was allowed to proceed for 12 hr at 4°C, the resin was washed and captured protein was eluted as described above. The presence of mSmo CRD-Fc was measured by an anti-human HRP-coupled antibody (1:20,000) or anti-human IR800-coupled antibody (1:10,000; for all quantitation, detected by LiCor Odyssey). The presence of zSmo ectodomain protein was measured by colloidal Coomassie staining (GelCode Blue, Pierce/Thermo Scientific). […]

YFP-mSmo [2] = target: T1, YFP-mSmo; assay: 20(S)-OHC bead pull-down of YFP-mSmo from cell lysates; type: binding; conditions: 50 μM free 20(S)-OHC as competitor
Description: 293T cells transfected with constructs encoding mSmo variants were lysed in hypotonic SEAT buffer (250 mM sucrose, 1 mM EDTA, 10 mM acetic acid, 10 mM triethanolamine and the SigmaFast EDTA-Free protease inhibitor cocktail). After the removal of nuclei by centrifugation (900×g, 5 min, 4°C), membranes were pelleted by ultracentrifugation (95,000×g, 30 min) and solubilized in a n-dodecyl-β-D-maltopyranoside (DDM) extraction buffer (50 mM Tris pH 7.4, 150 mM NaCl, 10% vol/vol glycerol, 0.5% wt/vol DDM and the SigmaFast EDTA-Free protease inhibitor cocktail) for 2 hr at 4°C, followed by removal of insoluble material by ultracentrifugation (100,000×g, 30 min). This DDM membrane extract was incubated with 20(S)-OHC beads for 12 hr at 4°C to allow binding to equilibrium. After extensive washing, proteins captured on the beads were eluted with reducing SDS sample buffer. The presence of YFP-mSmo in these eluates was determined by quantitative immunoblotting with an anti-YFP antibody (NB600-308, 1:5000; Novus) and infrared imaging (Li-Cor Odyssey).

Zebrafish embryos = assay: Zebrafish embryo treatment: eng2a:GFP reporter and ptch2 in situ hybridization; type: in vivo; conditions: 30hpf embryos, 20(S)-OHC 50 µM
Description: Adult fishes were maintained on a 14-hr light/10-hr dark cycle at 28°C in the AVA (Singapore) certified IMCB Zebrafish Facility. Zebrafish strain used was Tg(eng2a:eGFP)^i233 ([Maurya et al., 2011]).
The embryos of Tg(eng2a:eGFP)^i233 were dechorinated using pronase (Roche) at one cell stage. […] Control embryos were kept in water containing the same amount of ethanol, used as the vehicle for the drugs. Standard in situ hybridization (ISH) was performed with anti-Dig alkaline phosphatase and chromogenic substrate NBT/BCIP as previously described ([Oxtoby and Jowett, 1993]). ptch2 (formerly ptc1) RNA probe was prepared from template as previously described ([Concordet et al., 1996]).

[3] = system: Drosophila melanogaster Smo (dSmo) and dSmo CRD; assay: 20(S)-OHC bead binding of Drosophila Smo; conditions: bead-immobilized 20(S)-OHC
[4] = free compound added as competitor

CC(C)CCC[C@](C)(O)[C@H]1CC[C@H]2[C@@H]3CC=C4C[C@@H](O)CC[C@]4(C)[C@H]3CC[C@@]21C [20(S)-OHC, 20(S)-hydroxycholesterol]
Gli3R level (YFP-mSmo [1]): loss of the repressor form of Gli3 (Gli3R) was observed | activation of Hh target gene Gli1 (YFP-mSmo [1]): could activate a Hh target gene, Gli1 | response of ΔCRD-YFP-mSmo to agonist (Hh target genes, Gli3R) (ΔCRD-YFP-mSmo): failed to activate Hh target genes or to extinguish Gli3R levels | Kd (zSmo ectodomain; fixed amount of protein, increasing amounts of bead-immobilized sterol, read-out: Kd, zSmo ectodomain-20(S)-OHC interaction): ~170 nM | inhibition of binding of zSmo ectodomain to 20(S)-OHC beads (zSmo ectodomain; [4]): inhibited in a dose-responsive fashion | Kd (mSmo CRD-Fc; fixed amount of protein, increasing amounts of bead-immobilized sterol, read-out: Kd, mSmo CRD-Fc-20(S)-OHC interaction): ~180 nM | inhibition of binding of mSmo CRD-Fc to 20(S)-OHC beads (mSmo CRD-Fc; [4]): Binding could be inhibited | competition of YFP-mSmo binding to 20(S)-OHC beads (YFP-mSmo [2]): Binding to beads was not seen | ptch2 expression by in situ hybridization (Zebrafish embryos): modest expansion of the expression domain | eng2a:GFP reporter expression (Zebrafish embryos; cyclopamine 40 µM): significant increase in the number of GFP positive fast twitch muscles | binding of dSmo and dSmo CRD to 20(S)-OHC beads [3]: failed to bind 20(S)-OHC beads
